{"source": "patent US20200032214A1", "about": "“METHOD FOR PRODUCING MYOCARDIAL STEM CELL USED FOR TREATMENT AND/OR PREVENTION OF CARDIAC ARREST” (LUCA Science Inc., priority 2016, published 2020)", "tested_on": "mitochondrial membrane potential", "test": "Mitochondrial membrane potential with fluorescent dye JC-1", "assay_type": "cell-based, mouse", "conditions": "microscopy; FIG. 15", "excerpt": "For MA-Cell, and CPC prepared in Example 1, the mitochondrial membrane potential was examined using fluorescent dye JC-1 (Invitrogen) in accordance with manufacturer's protocol. JC-1 emits red fluorescence with a wavelength of 590 nm when accumulating on polarized mitochondria, and JC-1 is diffused into the cytoplasm to emit green fluorescence with a wavelength of 529 nm when mitochondria are depolarized (the membrane potential is eliminated).\nFurther, for 19 cells for each of MA-Cell and CPC, a ratio of the fluorescence intensity of polarized mitochondria (red, Dimer) to the fluorescence intensity of depolarized mitochondria (green, Monomer) (Dimer/Monomer ratio) was calculated (FIG. 16).", "data": [{"compound": "N#CC(C#N)=NNc1ccc(OC(F)(F)F)cc1", "note": "[FCCP]", "values": [{"measurement": "JC-1 red fluorescence (polarized mitochondria)", "value": "red fluorescence was substantially eliminated"}]}]}
